In one series the test system is PDE4. Description: Inhibition of PDE4 activity (cytosol from human neutrophils, [3H]cAMP hydrolysis). The series is classed as biochemical. Particulars: 0.5 μM cAMP, Motapizone 1 μM, DMSO 0.5% for (some of) examples 1-19, 1% from example 20. On the procedure:
Method for Measuring Inhibition of PDE4 Activity
PDE4 activity was determined as described by Thompson et al. (Adv Cycl Nucl Res 10: 69-92, 1979) with some modifications (Bauer and Schwabe, Naunyn-Schmiedeberg's Arch Pharmacol 311: 193-198, 1980). At a final assay volume of 200 μl (96well microtiter plates) the assay mixture contained 20 mM Tris-HCl (pH 7.4), 5 mM MgCl2, 0.5 μM cAMP, [^3H]cAMP (about 30,000 cpm/assay), the test compound and an aliquot of cytosol from human neutrophils which mainly contains PDE4 activity as described by Schudt et al. (Naunyn-Schmiedeberg's Arch Pharmacol 344: 682-690, 1991); the PDE3-specific inhibitor Motapizone (1 μM) was included to suppress PDE3 activity originating from contaminating platelets.
To minimize problems with the solubility of the compounds, starting from example 20 serial dilutions of the compounds were prepared directly in DMSO and further diluted 1:100 (v/v) in the assays to obtain now the final concentrations of the inhibitors at a DMSO concentration of 1% (v/v) which by itself only slightly affected PDE4 activity.
After preincubation for 5 min at 37° C., the reaction was started by the addition of substrate (cAMP) and the assays were incubated for further 15 min at 37° C. 50 μl of 0.2 N HCl was added to stop the reaction and the assays were left on ice for about 10 min. Following incubation with 25 μg 5′-nucleotidase (Crotalus atrox snake venom) for 10 min at 37° C., the assays were loaded on QAE Sephadex A-25 (1 ml bed volume). The columns were eluted with 2 ml of 30 mM ammonium formiate (pH 6.0) and the eluate was counted for radioactivity. Results were corrected for blank values (measured in the presence of denatured protein) which were below 5% of total radioactivity. […] The IC50-values for the compounds according to the invention for the inhibition of the PDE4 activity were determined from the concentration-inhibition curves by nonlinear-regression.

Another series concerns human eosinophils. As to the kind of experiment: Inhibition of C5a-stimulated chemiluminescence in human eosinophils. The series is classed as cell-based. Particulars: for IC30: Eosinophil, read-out: Inhibition of C5a-stimulated chemiluminescence [-logIC30 (mol/l)] (converted). The source says: c) Inhibition of C5a-stimulated Chemiluminescence in Human Eosinophils
Eosinophils were purified essentially as described in detail elsewhere (Hatzelmann A, Tenor H and Schudt C, Differential effects of non-selective and selective phosphodiesterase inhibitors on human eosinophil functions. Brit J Pharmacol 114: 821-831, 1995). Briefly, total granulocytes were first purified from blood (anticoagulated with 0.3% w/v sodium citrate) by dextran sedimentation, centrifugation on Ficoll Paque and hypotonic lysis of remaining red blood cells. For the further purification of the eosinophil fraction the magnetic cell separation (MACS) system from Miltenyi Biotec (Bergisch-Gladbach, Germany) was applied. Eosinophils were separated from neutrophils by negative selection using anti-CD16 microbeads in a two-step protocol using D- and BS-(formerly called B2-) separation columns. By this method human eosinophils with a purity of >99% and a viability of >97% were obtained.
The chemiluminescence (CL) assay was essentially performed as described (Hatzelmann et al., 1995). Briefly, measurements were performed in a “CL-buffer” (140 mM NaCl, 5 mM KCl, 1 mM MgCl2, 10 mM HEPES, pH 7.4) containing 1 mM CaCl2, 1 mg/ml glucose, 0.05% (w/v) BSA, 10 μM luminol and 4 μM microperoxidase (all values correspond to final concentrations in the assays) in a total volume of 0.5 ml at a cell concentration of 10^6 cells/ml. Aliquots (0.4 ml) of the cell suspension (containing luminol and microperoxidase) were preincubated for 5 min at 37° C. in the absence or presence of inhibitors (0.05 ml). Stock solutions of the inhibitors (10 mM) were prepared in DMSO and diluted 1:100 (v/v) in CL-buffer; subsequent dilutions were made in 1% DMSO/CL-buffer to achieve the final drug concentrations in the assays at a DMSO concentration of 0.1% (v/v) which by itself only weakly affected the CL response. […] After preincubation, the assays were transferred into a “Multi-biolumat LB 9505C” from Berthold (Wildbad, Germany) and stimulated by the addition of 0.05 ml C5a (dissolved in CL-buffer; 100 nM final concentration). CL was continuously recorded for 1 min (C5a) and the AUC (area under the curve) calculated. Inhibition of CL by the compounds under these conditions is given as −log IC30 (mol/l).

[1] abbreviates: 100 nM C5a, 100 nM salbutamol included as additional cAMP trigger.

This note sets out measurements from patent US6933296B2, “Compounds effective as β2-adrenoreceptor agonists as well as PDE4-inhibitors” (Altana Pharma B.V., priority 2000, dated 2005).

Take `COc1ccc(C2=NN(c3ccc(OCCNCC(O)c4cc(Cl)c(N)c(Cl)c4)cc3)C(=O)[C@@H]3CC=CC[C@H]23)cc1OC.O=C(O)C(=O)O` (stereo partly drawn): the melting point (in general, the temperature of the solid-liquid transition) lay within 136 to 138 °C. With `COc1ccc(C2=NN(C3CCN(CCS(=O)(=O)CCNCC(O)c4cc(Cl)c(N)c(Cl)c4)CC3)C(=O)[C@@H]3CC=CC[C@H]23)cc1OC.O=C(O)/C=C/C(=O)O` (stereo partly drawn), the melting point lay in the range of 137 to 138 °C. Turning to `CCOc1ccc(C2=NN(C3CCN(C(=O)CNCC(O)c4cc(Cl)c(N)c(Cl)c4)CC3)C(=O)[C@@H]3CC=CC[C@H]23)cc1OCC.O=C(O)/C=C/C(=O)O` (stereo partly drawn), the melting point is 172 to 173 °C. The same measure, in the same setting: next, `COc1ccc(C2=NN(C3CCN(C(=O)[C@H](C)NCC(O)c4cc(N)c(N)c(Cl)c4)CC3)C(=O)[C@@H]3CC=CC[C@H]23)cc1OC.O=C(O)/C=C/C(=O)O` (stereo partly drawn): 130 to 131 °C. `COc1ccc(C2=NN(c3ccc(OCCCCNCC(O)c4ccc(O)c(CO)c4)cc3)C(=O)[C@@H]3CC=CC[C@H]23)cc1OC.O=C(O)/C=C/C(=O)O` (stereo partly drawn) came in with a melting point of 126 to 127 °C. Turning to `COc1ccc(C2=NN(C3CCN(CCCCCCNCC(O)c4cc(Cl)c(N)c(C#N)c4)CC3)C(=O)[C@@H]3CC=CC[C@H]23)cc1OC.O=C(O)/C=C/C(=O)O` (stereo partly drawn), the melting point lay within 142 to 143 °C. Compound `COc1ccc(C2=NN(CCNCC(O)c3cc(Cl)c(N)c(Cl)c3)C(=O)C3CC=CCC23)c2c1OC1(CCCC1)C2` (stereo not drawn) [Compound 8, (cis)-2-(2-[{2-(4-amino-3,5-dichlorophenyl)-2-hydroxyethyl}amino]-1-ethyl)-4-(2,3-dihydro-7-methoxybenzofuran-2-spiro-1′-cyclopentan-4-yl)-4a,5,8,8a-tetrahydro-2H-phthalazin-1-one] returned a melting point of 176 to 177 °C. Besides, the Inhibition of PDE4 activity [-logIC50] in the series with PDE4 turned out to be 8.18. The IC30 in the series on human eosinophils (setting [1]) was 398 nM. In the same order, the values of `COc1ccc(C2=NN(c3ccc(OCCCCNCC(O)c4cc(Cl)c(N)c(Cl)c4)cc3)C(=O)[C@@H]3CC=CC[C@H]23)cc1OC.O=C(O)/C=C/C(=O)O` (stereo partly drawn) [Compound 21, (4aS,8aR)-2-(4-{4-[2-(4-Amino-3,5-dichlorophenyl)-2-hydroxy-ethylamino]-butoxyl}-phenyl)-4-(3,4-dimethoxy-phenyl)-4a,5,8,8a-tetrahydro-2H-phthalazin-1-one fumarate] are 126 to 127 °C, 10 and 302 nM.

As to `COc1ccc(C2=NN(Cc3ccc(OCCCCNCC(O)c4cc(Cl)c(N)c(Cl)c4)cc3)C(=O)[C@@H]3CC=CC[C@H]23)cc1OC.O=C(O)/C=C/C(=O)O` (stereo partly drawn) [Compound 22, (4aS,8aR)-2-(4-{4-[2-(4-Amino-3,5-dichloro-phenyl)-2-hydroxy-ethylamino]-butoxy}-benzyl)-4-(3,4-dimethoxy-phenyl)-4a,5,8,8a-tetrahydro-2H-phthalazin-1-one fumarate], the melting point lay within 119 to 120 °C. In the series with PDE4, this compound showed an Inhibition of PDE4 activity [-logIC50] of 9.79. Further, in the series on human eosinophils (setting [1]), the IC30 is 200 nM. As for `COc1ccc(C2=NN(C3CCN(C(=S)NCCCCNCC(O)c4cc(Cl)c(N)c(Cl)c4)CC3)C(=O)[C@@H]3CC=CC[C@H]23)cc1OC` (stereo partly drawn) [Compound 25, 4-[(4aS,8aR)-4-(3,4-Dimethoxy-phenyl)-1-oxo-4a,5,8,8a-tetrahydro-1H-phthalazin-2-yl]-piperidine-1-carbothioic acid {4-[2-(4-amino-3,5-dichloro-phenyl)-2-hydroxy-ethylamino]-butyl}-amide], the melting point lay within 139 to 144 °C. The Inhibition of PDE4 activity [-logIC50] in the series on PDE4 was determined as 10.6. The IC30 with human eosinophils (setting [1]) was 794 nM.

As to `COc1ccc(C2=NN(C3CCN(S(=O)(=O)CCNCC(O)c4cc(Cl)c(N)c(Cl)c4)CC3)C(=O)[C@@H]3CC=CC[C@H]23)cc1OC.O=C(O)/C=C/C(=O)O` (stereo partly drawn) [Compound 27, (4aS,8aR)-2-(1-{2-[2-(4-Amino-3,5-dichloro-phenyl)-2-hydroxy-ethylamino]-ethanesulfonyl}-piperidin-4yl)-4-(3,4-dimethoxy-phenyl)-4a,5,8,8a-tetrahydro-2H-phthalazin-1-one fumarate], the melting point was in the range of 169 to 171 °C. Besides, in the series on PDE4, the Inhibition of PDE4 activity [-logIC50] came out at 11.2. In the series with human eosinophils (setting [1]), the IC30 is 398 nM. As to `COc1ccc(C2=NN(C3CCN(S(=O)(=O)CCNCC(O)c4ccc(O)c(CO)c4)CC3)C(=O)[C@@H]3CC=CC[C@H]23)cc1OC` (stereo partly drawn) [Compound 29, (4aS,8aR)-4-(3,4-Dimethoxy-phenyl)-2-(1-{2-[2-hydroxy-2-(4-hydroxy-3-hydroxymethyl-phenyl)-ethylamino]-ethanesulfonyl}-piperidin-4-yl)-4a,5,8,8a-tetrahydro-2H-phthalazin-1-one], the melting point lay within 97 to 99 °C. Consider `COc1ccc(C2=NN(C3CCN(C(=O)CCSCCNCC(O)c4cc(Cl)c(N)c(Cl)c4)CC3)C(=O)[C@@H]3CC=CC[C@H]23)cc1OC.Cl` (stereo partly drawn) [Compound 30, (4aS,8aR)-2-[1-(3-{2-[2-(4-Amino-3,5-dichloro-phenyl)-2-hydroxy-ethylamino]-ethylsulfanyl}-propanoyl)-piperidin-4-yl]-4-(3,4-dimethoxy-phenyl)-4a,5,8,8a-tetrahydro-2H-phthalazin-1-one hydrochloride], for which the melting point is 118 to 120 °C. This compound registered an Inhibition of PDE4 activity [-logIC50] in the series with PDE4 of 10.7. Also, in the series with human eosinophils (setting [1]), the IC30 was 200 nM. For the compound `COc1ccc(C2=NN(C3CCN(C(=O)CCS(=O)(=O)CCNCC(O)c4cc(Cl)c(N)c(C#N)c4)CC3)C(=O)[C@@H]3CC=CC[C@H]23)cc1OC` (stereo partly drawn) [Compound 32, 2-Amino-3-chloro-5-{2-[2-(3-{4-[(4aS,8aR)-4-(3,4-dimethoxy-phenyl)-1-oxo-4a,5,8,8a-tetrahydro-1H-phthalazin-2-yl]-piperidin-1-yl}-3-oxo-propane-1-sulfonyl)-ethylamino]-1-hydroxy-ethyl}-benzonitrile], the melting point is 102 to 103 °C. In the series with PDE4, this compound yielded an Inhibition of PDE4 activity [-logIC50] of 11.4. Further, the IC30 in the series on human eosinophils (setting [1]) was 229 nM. In the same order, the values of `COc1ccc(C2=NN(C3CCN(C(=O)[C@H](C)NCC(O)c4cc(Cl)c(N)c(C#N)c4)CC3)C(=O)[C@@H]3CC=CC[C@H]23)cc1OC.Cl` (stereo partly drawn) [Compound 33, 2-Amino-3-chloro-5-[2-((S)-2-{4-[(4aS,8aR)-4-(3,4-dimethoxy-phenyl)-1-oxo-4a,5,8,8a-tetrahydro-1H-phthalazin-2-yl]-piperidin-1-yl}-1-methyl-2-oxo-ethylamino)-1-hydroxy-ethyl]-benzonitrile hydrochloride] are 160 to 161 °C, 10.1 and 501 nM.

For the compound `CC(C)(C)NCC(O)c1ccc(O)c(CO)c1` (stereo not drawn) [salbutamol, reference compound], the “effect on the CL response by itself” value in the series with human eosinophils (100 nM final concentration, C5a-stimulated) is given as “hardly affected the CL response”.

In the case of “(cis)-2-{4-(2-[{2-(4-amino-3,5-dichlorophenyl)-2-hydroxyethyl}amino]-1-ethyl}phenyl)-4-(3,4-dimethoxyphenyl)-4a,5,8,8a-tetrahydro-2H-phthalazin-1-one hemifumarate [Compound 5]”, in the series with human eosinophils (setting [1]), the “Inhibition of C5a-stimulated chemiluminescence [-logIC30 (mol/l)]” value worked out at 6.70 mol/l.
